Measured values as given in article PMC4689404, “2-Benzazolyl-4-Piperazin-1-Ylsulfonylbenzenecarbohydroxamic Acids as Novel Selective Histone Deacetylase-6 Inhibitors with Antiproliferative Activity” (PLoS ONE, 2015).
Like-named read-outs stand apart in the source and are kept apart here.

Experiments:
[1] = tested on: epigenetically silenced GFP transgene in LDR cells; experiment: locus derepression (LDR) assay, GFP induction; assay type: cell-based; design: key to GFP Induc.: -: —negative; settings: for GFP Induc.: Fig 4
Experimental: LDR cells were maintained in DMEM with L-glutamine and high glucose, 1 mM sodium pyruvate, 0.1 mM MEM non-essential amino acids, 1% v/v penicillin-streptomycin and 10% heat inactivated FBS. Cells were seeded on glass bottom chambers at low-medium density and allowed to attach overnight. Compounds were then added for 24h at the indicated dose and cells were imaged under a fluorescent microscope equipped with a camera using a 20 or 40X objective. All images shown were exposed for identical time.

[2] = biological target: T1, partially purified HDAC1 from mouse A20 cells (Mus musculus, UniProt O09106); experiment: HDAC1 activity assay, partially purified enzyme, [3H]acetate-prelabeled histones; assay type: biochemical; settings: Table 3; partially purified HDAC1; read-out: HDAC1 IC50
T1 construct: from mouse A20 cells was used as enzyme source; endogenous in cells; host or cells: mouse A20 cells
T1 sequence (O09106 whole entry): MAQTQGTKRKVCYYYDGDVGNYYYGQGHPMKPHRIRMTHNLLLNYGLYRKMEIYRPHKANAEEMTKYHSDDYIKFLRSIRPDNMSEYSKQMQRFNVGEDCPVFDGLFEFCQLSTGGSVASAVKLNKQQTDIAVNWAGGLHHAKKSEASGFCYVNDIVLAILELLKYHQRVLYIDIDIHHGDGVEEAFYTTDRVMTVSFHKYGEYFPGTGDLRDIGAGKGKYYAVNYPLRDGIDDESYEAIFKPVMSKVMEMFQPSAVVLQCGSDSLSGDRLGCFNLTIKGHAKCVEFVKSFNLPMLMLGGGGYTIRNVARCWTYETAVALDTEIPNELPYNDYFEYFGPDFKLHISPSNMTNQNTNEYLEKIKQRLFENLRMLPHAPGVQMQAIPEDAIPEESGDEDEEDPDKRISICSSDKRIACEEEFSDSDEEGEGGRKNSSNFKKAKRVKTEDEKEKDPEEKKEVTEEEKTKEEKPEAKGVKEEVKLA
Description: For inhibition assays, partially purified HDAC1 (70–80 fold enriched relative to crude samples) from mouse A20 cells was used as enzyme source. HDAC1 activity was purified by a combination of anion exchange chromatography (Mono Q), affinity chromatography (Poly-lysin agarose, Heparin Sepharose) and TSK size exclusion chromatography (Jesacher and Loidl, unpublished). HDAC1 protein was identified by immunoblotting using anti mouse HDAC1 antibodies (collaboration with Zymed Laboratories, Inc., San Francisco, California, USA). HDAC activity was determined as described by Sendra et al., [20] using [^3H]acetate-prelabeled chicken reticulocyte histones as substrate. 50 μL of mouse HDAC1 were incubated with different concentrations of compounds for 10 min on ice and 10 μL of total [^3H] acetate pre-labeled chicken reticulocyte histones (4 mg/mL) were added, resulting in a concentration of 41 μM. This mixture was incubated at 37°C for 1 h. The reaction was stopped by addition of 50 μL of 1 M HCl/0.4 M acetylacetate and 1 mL ethylacetate. After centrifugation at 10000 x g for 5 min an aliquot of 600 μL of the upper phase was counted for radioactivity in 3 mL liquid scintillation cocktail.

[3] = tested on: HBEC-30KT; experiment: MTS viability assay; assay type: cell-based, human; settings: Patient A normal line, 4 days, read-out: Antiproliferative activity IC50, HBEC-30KT
Experimental: (§1) Lung cancer cells (kindly provided by Dr. John D. Minna, [13, 21]) were maintained in RPMI 1640 media supplemented with 10% FBS. Immortalized normal human bronchial epithelial cells (also provided by Dr. John D. Minna) were cultured in KSFM supplemented with pituitary extract and EGF. For viability assays, cells were plated on 96 well plates and grown overnight. Cells were then exposed to increasing doses of the indicated compounds for 4 days and their viability assayed using the Promega Cell Titer 96 AQueous One kit per the manufacturer’s protocol. All doses were tested in 4–8 replicates. IC50 values were calculated using the in-house software DIVISA.

[4] = tested on: HBEC-34KT; experiment: MTS viability assay; assay type: cell-based, human; settings: Patient B normal line, 4 days, read-out: Antiproliferative activity IC50, HBEC-34KT
Experimental: as §1

[5] = biological target: T2, recombinant HDAC1 (Homo sapiens, UniProt Q13547); experiment: comparative HDAC inhibition assay (Millipore fluorometric kit); assay type: biochemical; settings: recombinant HDAC1, fluorometric substrate; Table 4
T2 construct: purchased Epigenetek
T2 sequence (Q13547 whole entry): as the sequence (O09106 whole entry) above, with K8R, E399D, D424E counted along it
Experimental: (§2) For the direct comparison of HDAC1 vs. HDAC6 inhibition, HDAC activity was analyzed using the HDAC Assay Kit from Millipore (17–356). Briefly, recombinant HDAC1 or recombinant HDAC6 (both purchased from Epigenetek, Purity of HDAC1 is more than 60% and purity HDAC6 is more than 85%). was incubated with the fluorometric HDAC substrate according to the manufacturer’s protocol in the presence of DMSO vehicle or increase compound doses. In a secondary activator reaction, the fluorophore is only cleaved from the deacetylated substrate, allowing for quantification. Fluorescence was quantified on a FLUOstar-Optima or a FLUOstar Omega plate reader (BMG Biosciences).

[6] = biological target: T3, recombinant HDAC6 (Homo sapiens, UniProt Q9UBN7); experiment: as above; assay type: biochemical; settings: for IC50: read-out: HDAC6 IC50
T3 construct: purchased Epigenetek
T3 sequence (Q9UBN7 1-1215): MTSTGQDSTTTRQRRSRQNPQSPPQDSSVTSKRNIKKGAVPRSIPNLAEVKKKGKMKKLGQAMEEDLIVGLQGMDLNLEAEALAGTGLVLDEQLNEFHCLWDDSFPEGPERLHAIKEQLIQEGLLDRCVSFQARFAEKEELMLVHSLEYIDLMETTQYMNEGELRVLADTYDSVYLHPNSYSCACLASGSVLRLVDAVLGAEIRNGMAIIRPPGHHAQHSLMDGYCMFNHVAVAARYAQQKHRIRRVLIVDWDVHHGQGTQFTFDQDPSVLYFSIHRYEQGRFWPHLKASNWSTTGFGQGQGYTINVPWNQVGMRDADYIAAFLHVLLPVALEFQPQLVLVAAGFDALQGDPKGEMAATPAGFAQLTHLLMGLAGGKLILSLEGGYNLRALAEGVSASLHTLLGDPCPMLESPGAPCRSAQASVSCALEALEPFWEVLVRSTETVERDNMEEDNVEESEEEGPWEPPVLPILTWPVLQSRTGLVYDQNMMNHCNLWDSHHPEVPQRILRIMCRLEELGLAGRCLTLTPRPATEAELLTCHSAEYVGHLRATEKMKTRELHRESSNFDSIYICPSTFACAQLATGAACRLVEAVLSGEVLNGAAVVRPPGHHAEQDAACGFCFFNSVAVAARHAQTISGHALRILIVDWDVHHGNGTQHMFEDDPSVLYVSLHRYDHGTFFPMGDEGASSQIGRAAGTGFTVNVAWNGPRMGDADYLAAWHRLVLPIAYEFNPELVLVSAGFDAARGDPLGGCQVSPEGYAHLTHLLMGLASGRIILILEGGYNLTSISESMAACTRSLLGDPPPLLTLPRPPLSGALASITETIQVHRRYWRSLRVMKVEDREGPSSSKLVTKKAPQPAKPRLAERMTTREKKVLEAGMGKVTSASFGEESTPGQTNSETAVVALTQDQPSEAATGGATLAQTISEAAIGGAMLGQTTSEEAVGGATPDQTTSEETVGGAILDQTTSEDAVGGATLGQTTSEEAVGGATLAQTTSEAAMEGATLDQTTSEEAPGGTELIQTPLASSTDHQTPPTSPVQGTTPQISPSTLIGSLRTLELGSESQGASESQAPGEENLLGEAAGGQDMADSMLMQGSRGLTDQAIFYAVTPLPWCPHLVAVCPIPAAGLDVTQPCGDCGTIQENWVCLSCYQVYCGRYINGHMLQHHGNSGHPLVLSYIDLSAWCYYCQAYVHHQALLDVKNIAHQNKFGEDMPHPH
Experimental: as §2

[7] = tested on: HCC4017; experiment: MTS viability assay; assay type: cell-based, human; settings: for IC50: Patient A cancer line, MTS, 4 days, read-out: Antiproliferative activity IC50, HCC4017; for Selectivity (HBEC-30KT vs HCC4017): Patient A
Experimental: as §1, with “Immortalized” for “Lung cancer cells (kindly provided by Dr. John D. Minna, [13, 21]) were maintained in RPMI 1640 media supplemented with 10% FBS. Immortalized”

[8] = tested on: HCC4018; experiment: MTS viability assay; assay type: cell-based, human; settings: for IC50: Patient B cancer line, MTS, 4 days, read-out: Antiproliferative activity IC50, HCC4018; for Selectivity (HBEC-34KT vs HCC4018): Patient B
Experimental: as §1, with “Immortalized” for “Lung cancer cells (kindly provided by Dr. John D. Minna, [13, 21]) were maintained in RPMI 1640 media supplemented with 10% FBS. Immortalized”

[9] = tested on: HDAC1; settings: read-out: HDAC1 IC50; Table 4; cited from earlier work
[10] = tested on: HDAC6; settings: read-out: HDAC6 IC50; Table 4; cited from earlier work
[11] = tested on: HDAC1; settings: Table 4; cited from earlier work

Cn1c(N2CCN(S(=O)(=O)c3cccc(C(=O)NO)c3)CC2)nc2ccccc21 [Compound 8b, 3-[4-(1-Methyl-Benzimidazol-2-yl)-piperazin-1-sulfonyl]-N -hydroxy-benzamid]
GFP Induc. [1]: - | IC50 [2]: 316000 nM | melting point: 167 to 169 °C

O=C(NO)c1ccc(S(=O)(=O)N2CCN(c3nc4ccccc4[nH]3)CC2)cc1 [Compound 9a, 4-[4(1H-Benzimidazol-2-yl)-pipreazin-1-sulfonyl]-N-hydroxy-benzamid]
IC50 ([3]; Homo sapiens, 96 h): > 10000 nM | IC50 ([4]; Homo sapiens, 96 h): > 10000 nM | IC50 [5]: 6000 ± 2900 nM | IC50 ([6]; Table 3): 1000 nM | Selectivity Index HDAC1/HDAC6 ([6]; Table 4): 6.5 | IC50 ([6]; recombinant HDAC6, fluorometric substrate, Table 4): 930 ± 750 nM | IC50 ([7]; Homo sapiens, HCC4017, 96 h): > 10000 nM | cellular activity ([7]; MTS viability, lung cancer and normal lines): no cellular activity | IC50 ([8]; Homo sapiens, 96 h): > 10000 nM | GFP induction / activity in the LDR assay [1]: inactive | GFP Induc. [1]: - | IC50 [2]: 12400 nM | melting point: 382 to 383 °C (dec.)

CC(/C=C/C(=O)NO)=C\[C@@H](C)C(=O)c1ccc(N(C)C)cc1 [TSA, trichostatin A, reference compound]
IC50 [9]: […] | IC50 [10]: 8.6 ± 1.4 nM | IC50 [3]: 285 nM | IC50 [4]: 346 nM | IC50 [7]: 73 nM | IC50 [8]: 23 nM

O=C(NO)c1cccc(S(=O)(=O)N2CCN(c3nc4ccccc4o3)CC2)c1 [Compound 8c, 3-(4-Benzoxazol-2-yl-piperazin-1-sulfonyl)-N -hydroxy-benzamid]
GFP Induc. [1]: - | IC50 [2]: 216000 nM | melting point: 257 to 262 °C

C/C=C1\NC(=O)[C@H]2CSSCC/C=C/[C@H](CC(=O)N[C@H](C(C)C)C(=O)N2)OC(=O)[C@H](C(C)C)NC1=O [Depsi., Depsipeptide, reference compound]
IC50 [3]: 0.9 nM | IC50 [4]: 1.3 nM | Selectivity (HBEC-30KT vs HCC4017) [7]: 0.14 | IC50 [7]: 6.5 nM | toxicity to normal vs patient-matched cancer cells ([7]; both paired cell lines): more toxic to normal cells than to the patient-matched cancer cells | Selectivity (HBEC-34KT vs HCC4018) [8]: 0.31 | IC50 [8]: 4.2 nM

O=C(NO)c1cccc(S(=O)(=O)N2CCN(c3nc4ccccc4[nH]3)CC2)c1 [Compound 8a, 3-[4(1H -Benzimidazol-2-yl)-piperazin-1-sulfonyl]-N -hydroxy-benzamid]
GFP Induc. [1]: - | melting point: 349 to 350 °C

CCC(=O)CCCCC[C@@H]1NC(=O)[C@H]2CCCCN2C(=O)[C@H]([C@@H](C)CC)NC(=O)[C@H](Cc2cn(OC)c3ccccc23)NC1=O [Apicidin, reference compound]
IC50 ([3]; Homo sapiens, 96 h): 90 nM | IC50 ([4]; Homo sapiens, 96 h): 790 nM | IC50 ([7]; Homo sapiens, HCC4017, 96 h): 120 nM | Selectivity (HBEC-30KT vs HCC4017) [7]: 0.75 | IC50 ([8]; Homo sapiens, 96 h): 30 nM | Selectivity (HBEC-34KT vs HCC4018) [8]: 26.3 | selectivity higher by a factor compared to compounds 9b-d ([8]; cells derived from patient B): 7–13 fold

O=C(NO)c1cccc(S(=O)(=O)N2CCN(c3nc4ccccc4s3)CC2)c1 [Compound 8d, 3-(4-Benzothiazol-2-yl-piperazin-1-sulfonyl)-N -hydroxy-benzamid]
GFP Induc. [1]: - | IC50 [2]: 140000 nM | melting point: 207 to 210 °C
